Data set [1] can be described thus: (§1) Apparent permeability across apical to basal side of Sprague-Dawley Rattus norvegicus (rat) normal duodenum sac at 1 mg/ml by HPLC method. Format: ADME. The following applies: Sprague-Dawley.
The nature of data set [2]: (§2) Apparent permeability across apical to basal side of Sprague-Dawley Rattus norvegicus (rat) normal jejunum sac at 1 mg/ml by HPLC method. In kind it is ADME, tissue-based. The following applies: Sprague-Dawley.
Data set [3] in a line: (§3) Apparent permeability across basal to apical side of Sprague-Dawley Rattus norvegicus (rat) everted duodenum sac at 1 mg/ml by HPLC method. Format: ADME. The following applies: Sprague-Dawley.
A short description of data set [4]: (§4) Apparent permeability across apical to basal side of Sprague-Dawley Rattus norvegicus (rat) normal ileum sac at 1 mg/ml by HPLC method. Format: ADME, tissue-based. The following applies: Sprague-Dawley.
Data set [5] is described as follows: (§5) Apparent permeability across basal to apical side of Sprague-Dawley Rattus norvegicus (rat) everted jejunum sac at 1 mg/ml by HPLC method. In kind it is ADME, tissue-based. The settings on record: Sprague-Dawley.
Data set [6] is described as follows: (§6) Efflux Rattus norvegicus (rat)io of apparent permeability from basal to apical side over apical to basal side of Sprague-Dawley Rattus norvegicus (rat) ileum sac at 1 mg/ml by HPLC method. Format: ADME, tissue-based. The following applies: Sprague-Dawley.
Data set [7] in a line: (§7) Efflux Rattus norvegicus (rat)io of apparent permeability from basal to apical side over apical to basal side of Sprague-Dawley Rattus norvegicus (rat) jejunum sac at 1 mg/ml by HPLC method. Format: ADME, tissue-based. The settings on record: Sprague-Dawley.
Data set [8] can be described thus: (§8) Apparent permeability across basal to apical side of Sprague-Dawley Rattus norvegicus (rat) everted ileum sac at 1 mg/ml by HPLC method. Format: ADME, tissue-based. The following applies: Sprague-Dawley.
Data set [9] can be described thus: (§9) Efflux Rattus norvegicus (rat)io of apparent permeability from basal to apical side over apical to basal side of Sprague-Dawley Rattus norvegicus (rat) duodenum sac at 1 mg/ml by HPLC method. Format: ADME. The settings on record: Sprague-Dawley.
Data set [10] deals with Duodenum. The data set is described as §1. In kind it is ADME.
The subject of data set [11] is Jejunum. The description is as §2. Format: ADME, tissue-based.
The subject of data set [12] is Duodenum. The data set is described as §3. Format: ADME.
The test system of data set [13] is Ileum. The data set is described as §4. Format: ADME, tissue-based.
Data set [14] deals with Jejunum. Described as §5. Format: ADME, tissue-based.
The test system of data set [15] is Ileum. The data set is described as §6. Format: ADME, tissue-based.
For data set [16], the system named is Jejunum. Described as §7. In kind it is ADME, tissue-based.
The subject of data set [17] is Ileum. The data set is described as §8. In kind it is ADME, tissue-based.
Data set [18] relates to Duodenum. The data set is described as §9. Format: ADME.
Data set [19] can be described thus: Efflux Rattus norvegicus (rat)io of apparent permeability from basal to apical side over apical to basal side of Sprague-Dawley Rattus norvegicus (rat) duodenum sac at 500 ug/ml by HPLC method. Format: ADME.
Data set [20] can be described thus: Apparent permeability across apical to basal side of Sprague-Dawley Rattus norvegicus (rat) normal duodenum sac at 500 ug/ml by HPLC method. Format: ADME.
Data set [21] can be described thus: Apparent permeability across apical to basal side of Sprague-Dawley Rattus norvegicus (rat) normal ileum sac at 500 ug/ml by HPLC method. Format: ADME, tissue-based.
Data set [22] in a line: Apparent permeability across basal to apical side of Sprague-Dawley Rattus norvegicus (rat) everted ileum sac at 500 ug/ml by HPLC method. In kind it is ADME, tissue-based.
Data set [23] is described as follows: Efflux Rattus norvegicus (rat)io of apparent permeability from basal to apical side over apical to basal side of Sprague-Dawley Rattus norvegicus (rat) […] sac at 500 ug/ml by HPLC method. In kind it is ADME, tissue-based, Ileum.
Data set [24] in a line: Apparent permeability across basal to apical side of Sprague-Dawley Rattus norvegicus (rat) everted jejunum sac at 500 ug/ml by HPLC method. In kind it is ADME, tissue-based.
Data set [25] is described as follows: Apparent permeability across apical to basal side of Sprague-Dawley Rattus norvegicus (rat) normal jejunum sac at 500 ug/ml by HPLC method. Format: ADME, tissue-based.
The nature of data set [26]: Apparent permeability across basal to apical side of Sprague-Dawley Rattus norvegicus (rat) everted duodenum sac at 500 ug/ml by HPLC method. In kind it is ADME.
Data set [27] can be described thus: Efflux Rattus norvegicus (rat)io of apparent permeability from basal to apical side over apical to basal side of Sprague-Dawley Rattus norvegicus (rat) jejunum sac at 500 ug/ml by HPLC method. Format: ADME, tissue-based.
Data set [28] in a line: Elimination half life in Homo sapiens (human). The settings on record: in vivo, read-out: beta t1/2 (converted). In kind it is ADME, organism-based.
The nature of data set [29]: Tmax in Homo sapiens (human). Format: ADME, organism-based. The settings on record: in vivo.
A short description of data set [30]: Dissociation constant, pKa of the compound. In kind it is physicochemical.
Data set [31] is described as follows: Oral bioavailability in Homo sapiens (human). In kind it is ADME, organism-based. The settings on record: in vivo.

The values below come from ChEMBL document CHEMBL3046680, “Evidence of stereoselective and segmental-dependant transport of chiral antidiabetic drug nateglinide along the rat small intestine: possible role of efflux transporters” (Med Chem Res, 2013).

As usually defined, the Papp A→B is the apparent permeability from the apical to the basolateral side of a cell layer. The Papp B→A is how fast a substance crosses the layer from the basolateral side. The efflux ratio is the permeability from basolateral to apical divided by that in the opposite direction, in the common usage. As for `CC(C)[C@H]1CC[C@H](C(=O)N[C@H](Cc2ccccc2)C(=O)O)CC1` (racemic; form 1) [NATEGLINIDE], the apparent permeability from apical to basolateral (Papp A→B) at 1 mg/ml in data set [1] was 260 ×10⁻⁶ cm/s; in data set [2], 230 ×10⁻⁶ cm/s; in data set [4], 190 ×10⁻⁶ cm/s. The Papp B→A at 1 mg/ml turned out to be 350 ×10⁻⁶ cm/s in [3], 340 ×10⁻⁶ cm/s in data set [5] and 590 ×10⁻⁶ cm/s in data set [8]. In addition, the efflux ratio at 1 mg/ml in [6] is 3.1; in data set [7], 1.4; in data set [9], 1.3.

Take `CC(C)[C@H]1CC[C@H](C(=O)N[C@H](Cc2ccccc2)C(=O)O)CC1` (racemic; form 2) [NATEGLINIDE]: the Papp amounted to 2.4 ×10⁻⁴ cm/s with Duodenum [10]; 2.2 ×10⁻⁴ cm/s in the data set on Jejunum [11]; 3.4 ×10⁻⁴ cm/s in the data set on Duodenum [12]; 1.3 ×10⁻⁴ cm/s in the data set on Ileum [13]; 3.6 ×10⁻⁴ cm/s with Jejunum [14]; 3.6 ×10⁻⁴ cm/s with Ileum [17]. Moreover, the Ratio in the data set on Ileum [15] amounted to 3.5; in the data set with Jejunum [16], 1.5; in the data set with Duodenum [18], 1.4.

In the case of `CC(C)[C@H]1CC[C@H](C(=O)N[C@@H](Cc2ccccc2)C(=O)O)CC1` [(S)-NATEGLINIDE], the values for the efflux ratio at 500 ug/ml in data set [19], in data set [23] and in data set [27] were 1.4, 3.8 and 1.7, respectively. In addition, the results for the Papp A→B at 500 ug/ml in data set [20], in [21] and in data set [25] were 140 ×10⁻⁶ cm/s, 100 ×10⁻⁶ cm/s and 130 ×10⁻⁶ cm/s, respectively. Moreover, the basolateral-to-apical permeability (Papp B→A) at 500 ug/ml in [22] came to 380 ×10⁻⁶ cm/s; in [24], 220 ×10⁻⁶ cm/s; in data set [26], 210 ×10⁻⁶ cm/s.

The Tmax is the time at which the peak concentration occurs. One may read the pKa as the negative logarithm of the acid dissociation constant. The term bioavailability denotes dose-corrected exposure relative to a reference, in per cent. As to `CC(C)[C@H]1CC[C@H](C(=O)N[C@H](Cc2ccccc2)C(=O)O)CC1` [NATEGLINIDE], the efflux ratio at 500 ug/ml in [19] turned out to be 1.6; in data set [23] it was 4.8; in [27] it was 2. Besides, the apical-to-basolateral permeability (Papp A→B) at 500 ug/ml in [20] was determined as 150 ×10⁻⁶ cm/s; in data set [21], 90 ×10⁻⁶ cm/s; in data set [25] it was 120 ×10⁻⁶ cm/s. The Papp B→A at 500 ug/ml in data set [22] was determined as 440 ×10⁻⁶ cm/s; in [24] it was 240 ×10⁻⁶ cm/s; in data set [26] it was 250 ×10⁻⁶ cm/s. The half-life in data set [28] was 84 min. In addition, the Tmax in [29] was found to be 30 min. For the same molecule, the pKa in data set [30] was 3.1. In data set [31], the bioavailability came to 70%.
